Data published in PubChem BioAssay (NCI).
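Each compound was tested at five concentrations against cells in 96-well plates for 48 hours. Definition used: TGI = concentration required for complete inhibition of growth.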

Key:
Experiment in all cases: NCI-60 cell line screen, 48 h
[1] = test system: IGROV1 ovarian
[2] = test system: SK-MEL-2 melanoma
[3] = test system: UACC-62 melanoma
[4] = test system: HT29 colon
[5] = test system: MDA-MB-231 breast
[6] = test system: HCC-2998 colon
[7] = test system: HS 578T breast
[8] = test system: RPMI-8226 leukemia
[9] = test system: MDA-N
[10] = test system: KM12 colon

Structure (SMILES) | TGI [1] [µM] | TGI [2] [µM] | TGI [3] [µM] | TGI [4] [µM] | TGI [5] [µM] | TGI [6] [µM] | TGI [7] [µM] | TGI [8] [µM] | TGI [9] [µM] | TGI [10] [µM]
CCCCC(=O)NS(=NC(=O)c1ccccc1)C(Cl)(Cl)Cl (stereo not given) | > 100 | > 100 | > 100 | > 100 | > 100 | > 100 | > 100 | > 100 | > 100 | > 100
Nc1nc(Cl)c(N)c(NCC2(CO)CC(OCc3ccccc3)C2)n1 (stereo not given) | > 100 | > 100 | > 100 | > 100 | > 100 | > 100 | > 100 | > 100 | > 100 | > 100
COC(=O)CCC(=O)NC1=C(Nc2ccc(OC)cc2)C(=O)c2ccccc2C1=O | 26 | 20.1 | 7.67 | 30.1 | 27.3 | 35.7 | 72.6 | 75.2 | 3.44 | 45.5
OC(c1cc2ccccc2o1)c1cc2ccccc2s1 (stereo not given) | > 10 | > 10 | > 10 | > 10 | > 10 | > 10 | > 10 | > 10 | > 10 | > 10
COc1ccc2nc3c([N+](=O)[O-])ccc4c3c(c2c1)NCCN4CCO | 3.22 | 1.87 | 1.07 | 2.02 | 2.05 | 1.91 | 2.79 | 2.61 | 1.64 | 2.35
O=C1NC(SSC2=NNC3(C(=O)N2)c2ccccc2-c2ccccc23)=NNC12c1ccccc1-c1ccccc12 | > 10 | > 10 | > 10 | > 10 | > 10 | > 10 | > 10 | > 10 | > 10 | > 10
Cc1ccsc1/C=N/Nc1nc2ccccc2s1 | 23.5 | 75.3 | > 100 | > 100 | 27.5 | > 100 | 78.2 | 72.2 | > 100 | 74.6
O=C(O)c1cc2ccccc2c(N=Nc2ccc(S(=O)(=O)Nc3nccs3)cc2)c1O | > 100 | > 100 | > 100 | > 100 | > 100 | > 100 | > 100 | > 100 | > 100 | > 100
COC(=O)/C(=C\Nc1cccc(C)n1)S(=O)(=O)c1ccc(C)cc1 | > 100 | > 100 | 91.5 | > 100 | > 100 | > 100 | > 100 | > 100 | > 100 | 90.3
CCC(CON(C)c1ccccc1)(SC)SC | > 100 | > 100 | > 100 | > 100 | > 100 | > 100 | > 100 | > 100 | > 100 | > 100
COc1ccc2c(CCN)c(C(=O)O)[nH]c2c1 | > 100 | > 100 | > 100 | > 100 | > 100 | > 100 | > 100 | > 100 | > 100 | > 100
CCCCc1ccc(Nc2nc3c(ncn3C3CC(O)C(CN=[N+]=[N-])O3)c(=O)[nH]2)cc1 (stereo not given) | > 100 | > 100 | > 100 | > 100 | > 100 | > 100 | > 100 | > 100 | > 100 | > 100
CCCCCCCCOC1C(O)C(O)C(O)C(O)C12CO2 (stereo not given) | > 100 | > 100 | > 100 | > 100 | > 100 | > 100 | > 100 | > 100 | > 100 | > 100
COC(=O)C1C/C(=C/N(C)C)C(=S)N1 (stereo not given) | > 100 | > 100 | > 100 | > 100 | > 100 | > 100 | > 100 | > 100 | > 100 | > 100
COC(=O)C(Cc1c(C2Nc3ccccc3C2CC(NC(=O)CNC(C)=O)C(=O)OC)[nH]c2ccccc12)NC(=O)CNC(C)=O (stereo not given) | > 100 | > 100 | > 100 | > 100 | > 100 | > 100 | > 100 | > 100 | > 100 | > 100
COc1ccc2nc3ccc(OC)cc3c(SCCO)c2c1 | > 51.1 | > 84 | > 100 | > 48.2 | > 100 | > 100 | > 100 | 48.9 | > 100 | > 63.8
Cc1nc(C)c(C(=O)NNC(N)=S)cc1C(=O)NNC(N)=S | > 100 | > 100 | > 100 | > 100 | > 100 | > 100 | > 100 | > 100 | > 100 | > 100
